The values below are quoted from earlier work in patent publication US20150320795A1, “COMPOSITIONS AND METHODS COMPRISING POLYETHYLENE GLYCOL AND MAGNESIUM FOR TREATMENT OF NEURONAL INJURY” (priority 2012, published 2015).

Structures are written as SMILES. Read-outs that look alike come from different tables or passages of the source.

Data set [1] deals with brain injury. To be noted: animals; U.S. application Ser. No. 11/418,153.
For data set [2] the following is noted: previously published.

As for `[Mg+2]` [magnesium], in data set [1], the “effect on the loss of cognitive functions following brain injury” value is “no effect”. For the same compound, the serum magnesium half-lives was around 6 h in data set [2] (brain injured patients after a 24-hour infusion period); 1.25 to 4.75 h in data set [2] (healthy volunteers, after one infusion); 5.2 h in data set [2] (patients, pre-eclampsia).
